# Test results reported in US20180104223A1, “TREATMENT OF PAIN” (PROXIMAGEN LIMITED, priority 2015, published 2018).
# Tests used:
# [1] = system: CFA (Complete Freunds Adjuvant) Induced Hypersensitivity in Rat; experiment: CFA induced hypersensitivity in rat, weight bearing (incapacitance tester); type: in vivo, rat (male Sprague Dawley)
# Method: (3S)-Tetrahydrofuran-3-yl (4S)-4-isopropyl-1,4,6,7-tetrahydro-5H-imidazo[4,5-c]-pyridine-5-carboxylate was investigated (FIG. 1) in the CFA thermal hyperalgesia model, which is an established model for inflammatory pain. […] In more detail:
# (§1) Assessment of the anti-hyperalgesic properties of (3S)-tetrahydrofuran-3-yl (4S)-4-isopropyl-1,4,6,7-tetrahydro-5H-imidazo[4,5-c]pyridine-5-carboxylate mesylate salt was determined through measurement of weight bearing following CFA induced hypersensitivity. Naive rats distribute their body weight equally between the two hind paws. However, when the injected (left) hind paw is painful, the weight is re-distributed so that less weight is put on the affected paw (decrease in weight bearing on injured paw). Weight bearing through each hind limb was measured using a rat incapacitance tester (Linton Instruments, UK). Rats were placed in the incapacitance tester with the hind paws on separate sensors and the average force exerted by both hind limbs was recorded over 4 seconds. The injection of CFA also induces an oedema that can be assessed by paw volume; this is measured using a plethysmometer. The rat's hind paw is placed into the cylinder containing a solution and the volume of displaced liquid determines the paw volume.
# Naive male, Sprague Dawley rats were acclimatised with food and water available ad libitum. Habituation to the incapacitance tester was performed. Baseline weight bearing and paw volume recordings were taken prior to induction of insult. Inflammatory hypersensitivity was induced by intraplantar injection of CFA (100 ul of 1 mg/ml solution) into the left hind paw. A pre-treatment weight bearing and paw volume measurement was taken to assess hypersensitivity 23 hours post-CFA. Animals were then ranked and randomised according to CFA window in a Latin square design. (3S)-Tetrahydrofuran-3-yl (4S)-4-isopropyl-1,4,6,7-tetrahydro-5H-imidazo[4,5-c]pyridine-5-carboxylate mesylate salt was then given at 150, 250 and 500 mg/kg p.o. (dosed in water at 2 mL/Kg, pH ˜5-6), alongside vehicle and reference group (indomethacin), n=9-10 per group. Weight bearing was assessed in all groups 1, 2 and 4 hours post compound administration. Paw volume was assessed 4 hours post compound administration. Data was analysed by comparing treatment groups to control group at each time point.
# Weight bearing (g) readings were taken for both right and left hind paws and the difference calculated. Data is expressed as % reversal of the hypersensitivity to pain, (post dose reading−pre dose reading)/(naïve reading−pre dose reading)×100, where naive weight bearing difference−pre dose weight bearing difference is defined as the CFA window to be reversed. Statistical analysis was conducted by means of repeated measures ANOVA followed by Planned comparison test using InVivoStat (invivostat.co.uk), (p<0.05 considered significant).
# [2] = system: CFA induced oedema, hind paw; experiment: CFA induced oedema in rat, paw volume (plethysmometer); type: in vivo, rat (male Sprague Dawley); settings: 150, 250 and 500 mg/kg p.o., 4 hours post compound administration
# Method: as §1
# Naive male, Sprague Dawley rats were acclimatised with food and water available ad libitum. […] Weight bearing was assessed in all groups 1, 2 and 4 hours post compound administration. Paw volume was assessed 4 hours post compound administration. Data was analysed by comparing treatment groups to control group at each time point.
SMILES,"efficacy compared with benchmark indomethacin in the CFA thermal hyperalgesia model ([1]; FIG. 1, summary statement)","efficacy in the CFA thermal hyperalgesia model (inflammatory pain) ([1]; FIG. 1, summary statement)","reversal of hypersensitivity (weight bearing) ([1]; 150 mg/kg p.o., rat, 1, 2 and 4 hours post dose)","reversal of hypersensitivity (weight bearing) ([1]; 250 mg/kg p.o., rat, 4 hours post dose)","reversal of hypersensitivity (weight bearing) ([1]; 500 mg/kg p.o., rat, 1, 2 and 4 hours post dose)","time of maximum effect on hypersensitivity ([1]; 500 mg/kg p.o., rat, post dose) [h]",effect on paw volume [2]
"CC(C)[C@H]1c2[nH]cnc2CCN1C(=O)O[C@H]1CCOC1 [(3S)-Tetrahydrofuran-3-yl (4S)-4-isopropyl-1,4,6,7-tetrahydro-5H-imidazo[4,5-c]pyridine-5-carboxylate]",comparably in efficacy to the gold standard benchmark indomethacin,effective in a dose-dependent manner,,,,,
"CC(C)[C@H]1c2nc[nH]c2CCN1C(=O)O[C@H]1CCOC1.CS(=O)(=O)O [(3S)-Tetrahydrofuran-3-yl (4S)-4-isopropyl-1,4,6,7-tetrahydro-5H-imidazo[4,5-c]pyridine-5-carboxylate, Methananesulfonic Acid Salt]",,,no significant reversal of hypersensitivity at any time point,significant reversal,effective at all time points,4,No effect
